Measured values reported in the CheMixHub viscosity set.
Values joined by “and” are separate entries in the source; they are usually repeats but may differ in a detail not shown here. Equal values may be shown once. ± gives the uncertainty stated by the source. Values belong to the compound of their own block, whether it stands above or below them.

viscosity (293.15 K, 101.33 kPa): 92.53 ± 2.9 mPa·s
viscosity (298.15 K, 101.33 kPa): 72.51 ± 2 mPa·s
viscosity (303.15 K, 101.33 kPa): 57.87 ± 1.5 mPa·s
viscosity (308.15 K, 101.33 kPa): 47.34 ± 1.2 mPa·s
viscosity (313.15 K, 101.33 kPa): 39.02 ± 1 mPa·s
viscosity (318.15 K, 101.33 kPa): 32.59 ± 0.85 mPa·s
Compound: CCn1cc[n+](CCOC)c1.O=S(=O)([O-])C(F)(F)F

viscosity (298.15 K, 100 kPa): 900.5 ± 88 mPa·s
viscosity (303.15 K, 100 kPa): 625.4 ± 54 mPa·s
viscosity (308.15 K, 100 kPa): 362.1 ± 24 mPa·s
viscosity (313.15 K, 100 kPa): 260 ± 15 mPa·s
viscosity (318.15 K, 100 kPa): 184.4 ± 8.3 mPa·s
viscosity (323.15 K, 100 kPa): 136.8 ± 4.8 mPa·s
Compound: COCCn1cc[n+](C)c1.C[C@@H](O)[C@H](N)C(=O)[O-]

viscosity (298.15 K, 100 kPa): 93.4 ± 2.4 mPa·s
viscosity (298.15 K, 101 kPa): 78 ± 4.7 mPa·s
viscosity (303.15 K, 101 kPa): 61.9 ± 3.7 mPa·s
viscosity (308.15 K, 101 kPa): 49.9 ± 3 mPa·s
viscosity (313.15 K, 101 kPa): 40.9 ± 2.5 mPa·s
Compound: COS(=O)(=O)[O-].Cn1cc[n+](C)c1

viscosity (306.3 K, 101.33 kPa): 2.685 ± 0.16 mPa·s
Compound: [2H]OCCCCC

Further lines, the compound ahead of its results:

Compound: CC(O)CCO (stereo not given)
viscosity (298.15 K, 101 kPa): 96.7 ± 2.2 mPa·s and 96.8 ± 1.2 mPa·s
viscosity (303.15 K, 101 kPa): 69.7 ± 1.5 mPa·s and 70.93 ± 0.56 mPa·s
viscosity (308.15 K, 101 kPa): 51.8 ± 1.1 mPa·s and 53.72 ± 0.28 mPa·s
viscosity (313.15 K, 101 kPa): 40 ± 0.8 mPa·s and 40.13 ± 0.26 mPa·s
viscosity (318.15 K, 101 kPa): 29.9 ± 0.6 mPa·s and 31.22 ± 0.2 mPa·s

Compound: CCCCCCC(C)O (stereo not given)
viscosity (298.15 K, 101 kPa): 6.49 ± 0.07 mPa·s
viscosity (298.15 K, 101.3 kPa): 5.929 ± 0.13 mPa·s and 5.956 ± 0.069 mPa·s
viscosity (303.15 K, 101.3 kPa): 4.794 ± 0.11 mPa·s and 4.803 ± 0.058 mPa·s
viscosity (303.15 K, 101.33 kPa): 4.804 ± 0.054 mPa·s
viscosity (308.15 K, 101.3 kPa): 3.909 ± 0.095 mPa·s and 3.907 ± 0.047 mPa·s

Compound: CCOC(=O)C(Br)CC (stereo not given)
viscosity (303.15 K, 101 kPa): 1.529 ± 0.0092 mPa·s

Compound: CCn1cc[n+](C)c1C.O=S(=O)([N-]S(=O)(=O)C(F)(F)F)C(F)(F)F
viscosity (293.15 K, 101.3 kPa): 88.09 ± 1.9 mPa·s
viscosity (298.15 K, 101.3 kPa): 69.84 ± 1.5 mPa·s
viscosity (303.15 K, 101.3 kPa): 56.37 ± 1.2 mPa·s
viscosity (308.15 K, 101.3 kPa): 46.1 ± 0.96 mPa·s
viscosity (313.15 K, 101.3 kPa): 38.26 ± 0.8 mPa·s
viscosity (318.15 K, 101.3 kPa): 32.15 ± 0.67 mPa·s
viscosity (323.15 K, 101.3 kPa): 27.31 ± 0.57 mPa·s

Compound: NCCNCCNCCN
viscosity (303.15 K, 101 kPa): 25.41 ± 2.5 mPa·s
viscosity (313.15 K, 101 kPa): 15.31 ± 1.5 mPa·s
viscosity (323.15 K, 101 kPa): 9.867 ± 0.99 mPa·s

Compound: O=C(Cl)c1ccccc1
viscosity (303.15 K, 101 kPa): 1.244 ± 0.015 mPa·s
